Measurements: patent US10392397B2, “Heterocyclic thiosemicarbazone derivatives and their therapeutical applications” (NANTBIO, INC., priority 2015, dated 2019)

Key:
Format in all cases: cell-based
UACC-62 = experiment: SRB growth inhibition, UACC-62; settings: Homo sapiens, UACC-62, Melanoma, 48 h
Method: (§1) Human tumor cell lines were grown in RPM(1640 medium containing 5% fetal bovine serum and 2 mM L-glutamine. For a typical screening experiment, cells were inoculated into 96 well microtiter plates in 100 μL at plating densities ranging from 5,000 to 40,000 cells/well depending on the doubling time of individual cell lines. After cell inoculation, the microtiter plates were incubated at 37° C., 5% CO2, 95% air and 100% relative humidity for 24 h prior to addition of Compound 3 above.
(§2) After 24 h, two plates of each cell line were fixed in situ with TCA, to represent a measurement of the cell population for each cell line at the time of drug addition (Tz). […]
(§3) Following drug addition, the plates were incubated for an additional 48 h at 37° C., 5% CO2, 95% air, and 100% relative humidity. […] Bound stain was subsequently solubilized with 10 mM trizma base, and the absorbance was read on an automated plate reader at a wavelength of 515 nm. […] Using the seven absorbance measurements [time zero, (Tz), control growth, (C), and test growth in the presence of drug at the five concentration levels (Ti)], the percentage growth was calculated at each of the drug concentrations levels. Percentage growth inhibition was calculated as: [(Ti-Tz)/(C-Tz)]×100 for concentrations for which Ti>/=Tz [(Ti-Tz)/Tz]×100 for concentrations for which Ti<Tz. […]

M14 = experiment: SRB growth inhibition, M14; settings: Homo sapiens, M14, Melanoma, 48 h
Method: as §1, §2, §3

MDA-MB-435 = experiment: SRB growth inhibition, MDA-MB-435; settings: Homo sapiens, MDA-MB-435, Melanoma, 48 h
Method: as §1, §2, §3

NCI-H23 = experiment: SRB growth inhibition, NCI-H23; settings: Homo sapiens, NCI-H23, Non-Small Cell Lung Cancer, 48 h
Method: as §1, §2, §3

RXF 393 = experiment: SRB growth inhibition, RXF 393; settings: Homo sapiens, RXF 393, Renal Cancer, 48 h
Method: as §1, §2, §3

HS 578T = experiment: SRB growth inhibition, HS 578T; settings: Homo sapiens, Breast Cancer, 48 h
Method: as §1, §2, §3

HCT-116 = experiment: SRB growth inhibition, HCT-116; settings: Homo sapiens, HCT-116, Colon Cancer, 48 h
Method: as §1, §2, §3

MALME-3M = experiment: SRB growth inhibition, MALME-3M; settings: Homo sapiens, Melanoma, 48 h
Method: as §1, §2, §3

K-562 = experiment: SRB growth inhibition, K-562; settings: Homo sapiens, K562, K-562, Leukemia, 48 h
Method: as §1, §2, §3

SW-620 = experiment: SRB growth inhibition, SW-620; settings: Homo sapiens, SW-620, Colon Cancer, 48 h
Method: as §1, §2, §3

KM12 = experiment: SRB growth inhibition, KM12; settings: Homo sapiens, KM12, Colon Cancer, 48 h
Method: as §1, §2, §3

T-47D = experiment: SRB growth inhibition, T-47D; settings: Homo sapiens, T47D, Breast Cancer, 48 h
Method: as §1, §2, §3

SK-MEL-5 = experiment: SRB growth inhibition, SK-MEL-5; settings: Homo sapiens, SK-MEL-5, Melanoma, 48 h
Method: as §1, §2, §3

HT29 = experiment: SRB growth inhibition, HT29; settings: Homo sapiens, HT-29, HT29, Colon Cancer, 48 h
Method: as §1, §2, §3

PC-3 = experiment: SRB growth inhibition, PC-3; settings: Homo sapiens, PC-3, Prostate Cancer, 48 h
Method: as §1, §2, §3

NCI-H522 = experiment: SRB growth inhibition, NCI-H522; settings: Homo sapiens, NCI-H522, Non-Small Cell Lung Cancer, 48 h
Method: as §1, §2, §3

SF-268 = experiment: SRB growth inhibition, SF-268; settings: Homo sapiens, SF-268, CNS Cancer, 48 h
Method: as §1, §2, §3

IGROV1 = experiment: SRB growth inhibition, IGROV1; settings: Homo sapiens, IGROV-1, IGROV1, Ovarian Cancer, 48 h
Method: as §1, §2, §3

786-0 = experiment: SRB growth inhibition, 786-0; settings: Homo sapiens, 786-0, Renal Cancer, 48 h
Method: as §1, §2, §3

EKVX = experiment: SRB growth inhibition, EKVX; settings: Homo sapiens, Non-Small Cell Lung Cancer, 48 h
Method: as §1, §2, §3

SK-MEL-2 = experiment: SRB growth inhibition, SK-MEL-2; settings: Homo sapiens, SK-MEL-2, Melanoma, 48 h
Method: as §1, §2, §3

HCT-15 = experiment: SRB growth inhibition, HCT-15; settings: Homo sapiens, HCT-15, Colon Cancer, 48 h
Method: as §1, §2, §3

SF-539 = experiment: SRB growth inhibition, SF-539; settings: Homo sapiens, SF-539, CNS Cancer, 48 h
Method: as §1, §2, §3

COLO 205 = experiment: SRB growth inhibition, COLO 205; settings: Homo sapiens, COLO 205, Colon Cancer, 48 h
Method: as §1, §2, §3

MOLT-4 = experiment: SRB growth inhibition, MOLT-4; settings: Homo sapiens, MOLT-4, Leukemia, 48 h
Method: as §1, §2, §3

SN12C = experiment: SRB growth inhibition, SN12C; settings: Homo sapiens, Renal Cancer, 48 h
Method: as §1, §2, §3

SNB-19 = experiment: SRB growth inhibition, SNB-19; settings: Homo sapiens, SNB-19, CNS Cancer, 48 h
Method: as §1, §2, §3

CAKI-1 = experiment: SRB growth inhibition, CAKI-1; settings: Homo sapiens, CAKI-1, Renal Cancer, 48 h
Method: as §1, §2, §3

SK-OV-3 = experiment: SRB growth inhibition, SK-OV-3; settings: Homo sapiens, SK-OV-3, Ovarian Cancer, 48 h
Method: as §1, §2, §3

UACC-257 = experiment: SRB growth inhibition, UACC-257; settings: Homo sapiens, UACC-257, Melanoma, 48 h
Method: as §1, §2, §3

## S=C(N/N=C1/CCOc2cccnc21)N1CCN(c2ccccn2)CC1 [Example 3, (Z)—N′-(2H-pyrano[3,2-b]pyridin-4(3H)-ylidene)-4-(pyridin-2-yl)piperazine-1-carbothiohydrazide]
UACC-62
  GI50: 0.17 µM
M14
  GI50: 0.0375 µM
MDA-MB-435
  GI50: 0.271 µM
NCI-H23
  GI50: 0.0321 µM
RXF 393
  GI50: 1.34 µM
HS 578T
  GI50: 0.754 µM
HCT-116
  GI50: < 0.01 µM
MALME-3M
  GI50: 1.29 µM
K-562
  GI50: < 0.01 µM
SW-620
  GI50: < 0.01 µM
KM12
  GI50: 0.225 µM
T-47D
  GI50: < 0.01 µM
SK-MEL-5
  GI50: 0.222 µM
HT29
  GI50: < 0.01 µM
PC-3
  GI50: < 0.01 µM
NCI-H522
  GI50: 0.505 µM
SF-268
  GI50: 0.41 µM
IGROV1
  GI50: < 0.01 µM
786-0
  GI50: 0.0771 µM
EKVX
  GI50: 0.14 µM
SK-MEL-2
  GI50: 0.799 µM
HCT-15
  GI50: < 0.01 µM
SF-539
  GI50: 1.16 µM
COLO 205
  GI50: < 0.01 µM
MOLT-4
  GI50: < 0.01 µM
SN12C
  GI50: 1.49 µM
SNB-19
  GI50: 0.433 µM
CAKI-1
  GI50: 0.151 µM
SK-OV-3
  GI50: 0.082 µM
UACC-257
  GI50: 0.0118 µM
